Measured values taken from ChEMBL document CHEMBL1131573, “Potent dipeptide inhibitors of the pp60c-src SH2 domain” (J Med Chem, 1998).
Square brackets hold non-standard residues; d marks the D form. Peptide text beside a SMILES is read from it. pY = N[C@@H](Cc1ccc(OP(=O)(O)O)cc1)C(=O)O; Ahp = NCCCCCCC(=O)O

Assay: Binding affinity against c-Src tyrosine kinase SH2 domain expressed as ratio of IC50 of test compound over IC50 of AcYEEIE

Ratio | Structure (SMILES)
25.4 | CCCCCN(CCCCC)C(=O)[C@H](CCC(=O)O)NC(=O)[C@H](Cc1ccc(OP(=O)(O)O)cc1)NC(=O)c1ccc(C(F)(F)F)cc1
32.7 | CCCCCN(CCCCC)C(=O)[C@H](CCC(=O)O)NC(=O)[C@H](Cc1ccc(OP(=O)(O)O)cc1)NC(=O)COCc1ccccc1
26.7 | CCCCCN(CCCCC)C(=O)[C@H](CCC(=O)O)NC(=O)[C@H](Cc1ccc(OP(=O)(O)O)cc1)NC(=O)CCc1ccc(O)cc1
17.7 | CCCCCN(CCCCC)C(=O)[C@H](CCC(=O)O)NC(=O)[C@H](Cc1ccc(OP(=O)(O)O)cc1)NC(=O)CSc1ccccc1
27.2 | CCCCCN(CCCCC)C(=O)[C@H](CCC(=O)O)NC(=O)[C@H](Cc1ccc(OP(=O)(O)O)cc1)NC(=O)CCCc1ccccc1
39 | CCCCCN(CCCCC)C(=O)[C@H](CCC(=O)O)NC(=O)[C@H](Cc1ccc(OP(=O)(O)O)cc1)NC(=O)c1ccc(Cl)cc1
31.5 | CC(=O)N[C@@H](Cc1ccc(OP(=O)(O)O)cc1)C(=O)N[C@@H](CCC(=O)O)C(=O)NCCc1c[nH]c2ccc(O)cc12
26.9 | CCCCCN(CCCCC)C(=O)[C@H](CCC(=O)O)NC(=O)[C@H](Cc1ccc(OP(=O)(O)O)cc1)NC(=O)Nc1ccc(N)cc1
5.7 | CCCCCN(CCCCC)C(=O)[C@H](CCC(=O)O)NC(=O)[C@H](Cc1ccc(OP(=O)(O)O)cc1)NC(=O)c1ccc([N+](=O)[O-])cc1
2.2 | CC(=O)N[C@@H](Cc1ccc(OP(=O)(O)O)cc1)C(=O)N[C@@H](CCC(=O)O)C(=O)N(C)CCCCCCCCO
16.5 | CCCCCN(CCCCC)C(=O)[C@H](CCSC)NC(=O)[C@H](Cc1ccc(OP(=O)(O)O)cc1)NC(C)=O
24 | CCCCCCN(CCCCCC)C(=O)[C@H](CCC(=O)O)NC(=O)[C@H](Cc1ccc(OP(=O)(O)O)cc1)NC(C)=O
200 | CC(=O)N[C@@H](Cc1ccc(OP(=O)(O)O)cc1)C(=O)N[C@@H](CCC(=O)O)C(N)=O (Ac-[pY]-Glu-NH2)
31.8 | CC(=O)N[C@@H](Cc1ccc(OP(=O)(O)O)cc1)C(=O)N[C@@H](CCC(=O)O)C(=O)N(C)CCc1c[nH]c2ccccc12
16.5 | CCCCCN(CCCCC)C(=O)[C@H](CCC(=O)O)NC(=O)[C@H](Cc1ccc(OP(=O)(O)O)cc1)NC(=O)Cc1ccccc1
36.7 | CC(=O)N[C@@H](Cc1ccc(OP(=O)(O)O)cc1)C(=O)N[C@@H](CCC(=O)O)C(=O)NCCCCCCC(=O)O (Ac-[pY]-Glu-[Ahp]-OH)
9.3 | CC(=O)N[C@@H](Cc1ccc(OP(=O)(O)O)cc1)C(=O)N[C@@H](CCC(=O)O)C(=O)N(C)CCCc1c(C(N)=O)[nH]c2ccccc12
3.6 | CC(=O)N[C@@H](Cc1ccc(OP(=O)(O)O)cc1)C(=O)N[C@@H](CCC(=O)O)C(=O)N(C)CCCCCCCO
16.7 | CCCCCN(CCO)C(=O)[C@H](CCC(=O)O)NC(=O)[C@H](Cc1ccc(OP(=O)(O)O)cc1)NC(C)=O
10.8 | CCCCCN(CCCCC)C(=O)[C@H](CCC(=O)O)NC(=O)[C@H](Cc1ccc(OP(=O)(O)O)cc1)NC(=O)CCc1ccccc1
11.6 | CC(=O)N[C@@H](Cc1ccc(OP(=O)(O)O)cc1)C(=O)N[C@@H](CCC(=O)O)C(=O)N(C)CCCc1c[nH]c2ccccc12

Ratio | Structure (SMILES)
26 | CCCCCN(CCC(=O)OCC)C(=O)[C@H](CCC(=O)O)NC(=O)[C@H](Cc1ccc(OP(=O)(O)O)cc1)NC(C)=O
155 | CCCCCN(CCCCC)C(=O)[C@H](CSCc1ccccc1)NC(=O)[C@H](Cc1ccc(OP(=O)(O)O)cc1)NC(C)=O
13.5 | CCCCCN(CCCCC)C(=O)[C@H](CCC(=O)O)NC(=O)[C@H](Cc1ccc(OP(=O)(O)O)cc1)NC(=O)Nc1ccc(OC)cc1
33.1 | CCCCCN(CCCCC)C(=O)[C@H](CSC)NC(=O)[C@H](Cc1ccc(OP(=O)(O)O)cc1)NC(C)=O
79.7 | CCCCCN(CCCCC)C(=O)[C@H](CCC(=O)O)NC(=O)[C@H](Cc1ccc(OP(=O)(O)O)cc1)NC(=O)OCc1ccccc1
16.6 | CCCCCNC(=O)[C@H](CCC(=O)O)NC(=O)[C@H](Cc1ccc(OP(=O)(O)O)cc1)NC(C)=O
15.3 | CCCCCN(CCCCC)C(=O)[C@H](CCC(=O)O)NC(=O)[C@H](Cc1ccc(OP(=O)(O)O)cc1)NC(=O)c1ccccc1
75.3 | CCCCCN(CCCCC)C(=O)[C@H](CCS(C)(=O)=O)NC(=O)[C@H](Cc1ccc(OP(=O)(O)O)cc1)NC(C)=O
92.1 | CCCCCN(CCCCC)C(=O)[C@H](CCC(=O)O)NC(=O)[C@H](Cc1ccc(OP(=O)(O)O)cc1)NC(=O)Cc1ccc(CN)cc1
48 | CCCCCN(CCC(=O)O)C(=O)[C@H](CCC(=O)O)NC(=O)[C@H](Cc1ccc(OP(=O)(O)O)cc1)NC(C)=O
12 | CCCCCN(C)C(=O)[C@H](CCC(=O)O)NC(=O)[C@H](Cc1ccc(OP(=O)(O)O)cc1)NC(C)=O
18.9 | CCCCCN(CCCCC)C(=O)[C@H](CCC(=O)O)NC(=O)[C@H](Cc1ccc(OP(=O)(O)O)cc1)NC(=O)CSCc1ccccc1
606 | CC(=O)N[C@@H](Cc1ccc(OP(=O)(O)O)cc1)C(=O)N[C@@H](CCC(=O)O)C(=O)O (Ac-[pY]-Glu-OH)
7.2 | CCCCCN(CCCCC)C(=O)[C@H](CCC(=O)O)NC(=O)[C@H](Cc1ccc(OP(=O)(O)O)cc1)NC(=O)c1ccc(OC)cc1
17.7 | CCCCCN(CCCCC)C(=O)[C@H](CCC(=O)O)NC(=O)[C@H](Cc1ccc(OP(=O)(O)O)cc1)NC(=O)CCc1cccnc1
57.2 | CCCCCN(CCCCC)C(=O)[C@H](CCC(=O)O)NC(=O)[C@H](Cc1ccc(OP(=O)(O)O)cc1)NC(=O)C(F)(F)F
115 | CC(=O)N[C@@H](Cc1ccc(OP(=O)(O)O)cc1)C(=O)N[C@@H](CCC(=O)O)C(=O)NCCCCCCC(N)=O (Ac-[pY]-Glu-[Ahp]-NH2)
184 | CCCCCN(CCCCC)C(=O)[C@H](CCC(=O)O)NC(=O)[C@H](Cc1ccc(OP(=O)(O)O)cc1)NC(=O)Nc1ccc([N+](=O)[O-])cc1
6.4 | CC(=O)N[C@@H](Cc1ccc(OP(=O)(O)O)cc1)C(=O)N[C@@H](CCC(=O)O)C(=O)N(C)CCCCCCO
327 | CCCCCCCN(CCCCCCC)C(=O)[C@H](CCC(=O)O)NC(=O)[C@H](Cc1ccc(OP(=O)(O)O)cc1)NC(C)=O
29.7 | COc1ccc2[nH]cc(CCNC(=O)[C@H](CCC(=O)O)NC(=O)[C@H](Cc3ccc(OP(=O)(O)O)cc3)NC(C)=O)c2c1
